Source: US20050107430A1, “Antimicrobial and antiviral compounds” (priority 2003, published 2005)
pIC50: −log10 of the molar value. In brackets after ≈: the same amount, converted by molar mass.

Legend:
[1] = test system: human fibroblasts; assay: Toxicity study with human fibroblasts; format: cell-based
[2] = test system: Mycobacterium tuberculosis; settings: Table 3
[3] = test system: Mycobacterium chelonae; assay: MIC, Mycobacterium chelonae; format: cell-based; settings: Table 3
[4] = test system: VRE (Vancomycin resistant Enterococci); assay: NCCLS MIC/MBC microdilution, VRE; settings: for MIC, VRE enterococcus (E. faecalis): Table 3, 24 h and 48 h same results
Experimental: (§2) Standard NCCLS (e.g., National Committee for Clinical Laboratory Standards) methods for determining MIC (e.g., minimum inhibitory concentration) and MBC (e.g., minimum bactericidal concentration) were used. 96 well micro-well plates were placed in a humid chamber and frozen at −70° C. [BBL Mueller Hinton Broth]. Drugs (e.g., antimicrobial compounds of the present invention) were added to a series of wells through 2 fold serial dilutions. 100 μl of a 2×10^−3 M solution of the respective Tx compounds was added to the first well in a series. 100 μl of the inoculum (e.g., microorganism) was added to the well. […] For example, the concentration in well 8 would be less than the concentration of the same drug in well 7. Inoculum (e.g., microorganism) that was added to the wells was prepared from 24 hour growth of an isolate on 5% sheep blood/Columbia agar plates. 5 to 10 representative colonies were then picked from the plates and added to saline and adjusted to 0.5 McFarland turbidity. Next the sample was diluted 1:100 in saline, such that 100 μl of the diluted sample contained approximately 1×10^5 microbes. 100 μl of the diluted sample was added to each well in a series of drug concentrations. Once the cells were added to the wells, the well plates were incubated at 35° C. without CO2 for 48 hrs and at this time the minimum bactericidal concentration was determined.
(§3) The MIC of Tx-118, Tx-147, and Tx-197 for certain Staphylococcus aureus (MRSA), Pseudomonas aeruginosa, Stenotrophomonas maltophilia, and VRE Enterococcus faecalis was determined using standard NCCLS methods. The first well in each series of decreasing drug concentrations contained 1×10^−4 M of a drug. The drug was diluted by serial two fold dilutions through all 12 wells in a series. There was a final DMSO concentration of 2% in the first well and 1% in the second well, etc. Tests with Tx-118 and Tx-197 were performed in triplicate, and tests with Tx-147 were performed in duplicate.

[5] = test system: MRSA (oxacillin/methicillin resistant S. aureus); assay: NCCLS MIC/MBC microdilution, MRSA; settings: for MBC: read at 48 hr, 10^−3 kill
Experimental: as §2, §3

[6] = test system: P. aeruginosa; assay: NCCLS MIC/MBC microdilution, P. aeruginosa; parameters: MIC: key to the marks not given beside the values; settings: for MIC, P. aeruginosa: Table 3, P. aeroginosa is L13 from Table 2
[7] = test system: Stenotrophomonas maltophilia; assay: NCCLS MIC/MBC microdilution, S. maltophilia; settings: for MBC: read at 48 hr, 10^−3 kill
Experimental: as §2, §3

[8] = test system: Vancomycin resistant S. aureus ATCC700699 and 700788 (VRSA); assay: NCCLS MIC/MBC microdilution, vancomycin resistant S. aureus; format: cell-based, Staphylococcus aureus; settings: for MIC, VRSA (ATCC 700699) / MIC, VRSA (ATCC 700788): Table 3, 24 h and 48 h same results; for MBC: read at 48 hr
From the text: (§1) [BBL Mueller Hinton Broth].

[9] = test system: E. coli ATCC 25922; assay: NCCLS MIC/MBC microdilution, E. coli; format: cell-based; settings: plate EC
From the text: as §1

[10] = test system: chloroquin (CQ) resistant strain of Plasmodium falciparum (Pf); assay: In vitro efficacy against chloroquin resistant Plasmodium falciparum; format: cell-based
Experimental: Tx-5 and Tx-84 were tested for in vitro efficacy against a chloroquin (CQ) resistant strain of Plasmodium falciparum (Pf). The tests were performed in triplicate at a wide variety of concentrations and evaluated for effect compared with CQ.

[11] = test system: Candida albicans; assay: MIC, Candida albicans; format: cell-based
[12] = test system: BDF1′ mice; settings: 35 mg/kg ip
[13] = test system: S. aureus; assay: NCCLS MIC/MBC microdilution, S. aureus patient isolates; format: cell-based, Staphylococcus aureus; settings: for MBC: read at 48 hr
From the text: as §1

[14] = test system: Enterococcus faecium; assay: NCCLS MIC/MBC microdilution, Enterococcus (vancomycin sensitive); format: cell-based; settings: for MBC: read at 48 hr
From the text: as §1

[15] = test system: Fusarium; assay: MIC, Fusarium; format: cell-based; settings: Table 3
[16] = test system: Aspergillus fumigatus; assay: MIC, Aspergillus fumigatus; format: cell-based; settings: Table 3
[17] = Table 3, 24 h and 48 h same results
[18] = plate 699, VancoR S. aureus ATCC700699
[19] = plate 788, VancoR S. aureus ATCC 700788
[20] = plate S332, S aureus patient isolate
[21] = plate E348, Enterococcus faecium patient isolate
[22] = plate E502, Enterococcus faecium ATCC 502806
[23] = plate E523, Enterococcus facium patient isolate

**Q.** For c1ccc2c(c1)ccc1c3ccc(NCCCCN4CCCCC4)cc3ccc21 [Tx-5, N-(2′-chrysenyl)-4-(1′-piperidinyl)-butane-1,4-diamine], which “Toxicity/human fibroblasts (IC50)” value [1] is on record?
**A.** 6 µg/mL

**Q.** And the “MIC, Mycobacterium tuberculosis” value [2]?
**A.** 7 µg/mL (≈ 18.3 µM)

**Q.** What about the “MIC, Mycobacterium chelonae” value [3] of the same compound?
**A.** 5 to 24 µg/mL

**Q.** What about the “MIC, VRE enterococcus (E. faecalis)” value [4] of the same compound?
**A.** 3 µg/mL (≈ 7.84 µM)

**Q.** What about the MIC ([4]; plate D4, VRE patient isolate) of the same compound?
**A.** 3 µg/mL (≈ 7.84 µM)

**Q.** And the “MIC, MRSA (methicillin resistant)” value [5, 17]?
**A.** 1.5 to 3 µg/mL

**Q.** What about the “bactericidal activity against Staphylococcus aureus (MRSA)” value ([5]; in words, Example 1) of the same compound?
**A.** bactericidal activity

**Q.** What about the MIC ([5]; plate A1, MRSA patient isolate) of the same compound?
**A.** 3/3 ug/ml

**Q.** And the MBC ([5]; plate A1, MRSA)?
**A.** 3/3 ug/ml

**Q.** And the MIC ([5]; plate B2, MRSA patient isolate)?
**A.** 1.5 µg/mL (≈ 3.92 µM)

**Q.** What about the MIC ([5]; plate E5, MRSA patient isolate) of the same compound?
**A.** 1.5 µg/mL (≈ 3.92 µM)

**Q.** And the MIC ([5]; plate F6, MRSA patient isolate)?
**A.** 1.5/1.5 ug/ml

**Q.** And the MBC ([5]; plate F6, MRSA)?
**A.** 1.5/1.5 ug/ml

**Q.** What about the MIC ([5]; plate G7, MRSA patient isolate) of the same compound?
**A.** 1.5 µg/mL (≈ 3.92 µM)

**Q.** What about the MIC ([5]; plate H9, MRSA patient isolate) of the same compound?
**A.** 3/3 ug/ml

**Q.** What about the MBC ([5]; plate H9, MRSA) of the same compound?
**A.** 3/3 ug/ml

**Q.** What about the MIC ([5]; plate K12, MRSA patient isolate) of the same compound?
**A.** 3 µg/mL (≈ 7.84 µM)

**Q.** And the “MIC, P. aeruginosa” value [6]?
**A.** No activity

**Q.** What about the MIC ([6]; plate 37, P. aeruginosa sensitive isolate) of the same compound?
**A.** +++

**Q.** What about the MIC ([6]; plate ATCC, P. aeruginosa ATCC 27853) of the same compound?
**A.** +++

**Q.** What about the MIC ([6]; plate L13, P. aeruginosaR (multi-resistant)) of the same compound?
**A.** +++

**Q.** And the “MIC, Stenotrophomonas maltophilia” value [7, 17]?
**A.** 24 to 48 µg/mL

**Q.** And the “bactericidal activity against Stenotrophomonas maltophilia” value ([7]; in words, Example 1)?
**A.** some bactericidal activity

**Q.** And the MIC ([7]; plate C3, S. maltophilia patient isolate)?
**A.** 48/48 ug/ml

**Q.** And the MBC ([7]; plate C3, S. maltophilia)?
**A.** 48/48 ug/ml

**Q.** What about the MIC ([7]; plate I10, S. maltophilia patient isolate) of the same compound?
**A.** 24/24 ug/ml

**Q.** And the MBC ([7]; plate I10, S. maltophilia)?
**A.** 24/24 ug/ml

**Q.** And the MIC ([7]; plate J11, S. maltophilia patient isolate)?
**A.** 48/48 ug/ml

**Q.** What about the MBC ([7]; plate J11, S. maltophilia) of the same compound?
**A.** 48/48 ug/ml

**Q.** What about the “MIC, VRSA (ATCC 700699)” value [8] of the same compound?
**A.** 1.5 µg/mL (≈ 3.92 µM)

**Q.** And the “MIC, VRSA (ATCC 700788)” value [8]?
**A.** 3.0 µg/mL (≈ 7.84 µM)

**Q.** What about the MIC [8, 18] of the same compound?
**A.** 1.5 µg/mL (≈ 3.92 µM)

**Q.** What about the MBC [8, 18] of the same compound?
**A.** 12 µg/mL (≈ 31.4 µM)

**Q.** What about the MIC [8, 19] of the same compound?
**A.** 3 µg/mL (≈ 7.84 µM)

**Q.** And the MBC [8, 19]?
**A.** 12 µg/mL (≈ 31.4 µM)

**Q.** And the MIC [9]?
**A.** 48/48 ug/ml

**Q.** And the MBC ([9]; read at 48 hr, 10^−3 kill)?
**A.** 48/48 ug/ml

**Q.** And the pIC50 ([10]; CQ resistant P. falciparum, in vitro, triplicate)?
**A.** 3.81

**Q.** What about the “inhibitory effect against Pf” value ([10]; in words) of the same compound?
**A.** weak effect

**Q.** What about the “inhib. of Candida albicans” value ([11]; @ 15 ug/ml) of the same compound?
**A.** (90% inhib. @ 15 ug/ml)

**Q.** What about the “MIC, Candida albicans” value ([11]; Table 3) of the same compound?
**A.** 30 µg/mL (≈ 78.4 µM)

**Q.** And the “animal studies (ip), mortality” value [12]?
**A.** mg/kg (<10% mort)

**Q.** And the MIC [13, 20]?
**A.** 0.4 µg/mL (≈ 1.05 µM)

**Q.** And the MBC [13, 20]?
**A.** 0.7 µg/mL (≈ 1.83 µM)

**Q.** What about the MIC ([13]; plate S520, S aureus patient isolate penicillin resistant) of the same compound?
**A.** 1.5/1.5 ug/ml

**Q.** And the MBC ([13]; plate S520, S aureus patient isolate)?
**A.** 1.5/1.5 ug/ml

**Q.** And the MIC [14, 21]?
**A.** 1.5 µg/mL (≈ 3.92 µM)

**Q.** And the MBC [14, 21]?
**A.** 3 µg/mL (≈ 7.84 µM)

**Q.** What about the MIC [14, 22] of the same compound?
**A.** 1.5 µg/mL (≈ 3.92 µM)

**Q.** What about the MBC [14, 22] of the same compound?
**A.** 6 µg/mL (≈ 15.7 µM)

**Q.** And the MIC [14, 23]?
**A.** 1.5/1.5 ug/ml

**Q.** And the MBC [14, 23]?
**A.** 1.5/1.5 ug/ml

**Q.** With c1ccc2c3c(ccc2c1)-c1c(cc(NCCCCN2CCCCC2)c2ccccc12)C3 [Tx-112] as the compound, how does the “MIC, VRE enterococcus (E. faecalis)” value [4] read?
**A.** 210 µg/mL (≈ 499 µM)

**Q.** What about the “MIC, P. aeruginosa” value [6] of the same compound?
**A.** No activity

**Q.** And the “MIC, Fusarium” value [15]?
**A.** 3.3 µg/mL (≈ 7.85 µM)

**Q.** And the “MIC, VRSA (ATCC 700699)” value [8]?
**A.** 8 µg/mL (≈ 19 µM)

**Q.** And the “MIC, VRSA (ATCC 700788)” value [8]?
**A.** 8 µg/mL (≈ 19 µM)

**Q.** What about the “MIC, Aspergillus fumigatus” value [16] of the same compound?
**A.** 6.5 µg/mL (≈ 15.5 µM)
